This is an account of results in patent publication US12011619B2, “Low intensity focused ultrasound for treating cancer and metastasis” (priority 2015, dated 2024).

Data set [1] has as its system RM1 tumor (murine prostate cancer cell line). The data set can be described thus: RM1 tumor growth in C57Bl/6 mice. In kind it is in vivo, mouse. Particulars: for tumor volume: untreated tumor 1879±98.65 mm^3. How it is done:
(§1) This protocol yielded an approximate in situ spatial-peak temporal-average acoustic intensity of 270 W/cm^2, resulting in estimated average intra-tumoral temperature elevation of 3.2° C. Post-treatment, there were no signs of normal tissue toxicity such as alopecia, thermal damage, or skin wounds. […] Control mice were injected with equal volume of the vehicle DMSO, which was used to solubilize 17AAG.
(§2) C57Bl/6 and BalbC nu/nu mice were injected subcutaneously with 1×10^5 RM-1 (murine prostate cancer cell line) and 1×10^6 PC3 (human prostate cancer cell line) cells on the flank, respectively. Approximately 10 days later, the tumor became palpable (3-5 mm in diameter), whereupon LOFU treatment was initiated. […] Palpable tumors were treated with LOFU every 3-4 days for five fractions administered over two weeks. Animals received 17AAG three times a week during this time. Tumor volume measurements were performed twice weekly using Vernier calipers along with simultaneous physical assessment of signs of systemic toxicity (malaise and diarrhea).

The nature of data set [2]: Toxicity / survival of 17AAG dosing in mice (Kaplan Meier, signs of toxicity). In kind it is in vivo. The procedure:
as §1
Thus, these dose levels were selected for the current study. The goal was to combine two therapies that are nontoxic, albeit subtherapeutic, and examine whether the combination can be therapeutic. […] To detect the level of ER stress, the expression levels of ER chaperones, ERp44, ERp57, and ERp72 were quantitated among different treatment groups. ERp44 is responsible for oxidative protein folding. ERp57 is an ER resident thiol disulfide oxidoreductase while Erp72 is a disulfide isomerase. All these proteins participate in the protein folding machinery of the ER.
as §2
Mice survival/mortality in different treatment groups was analyzed by Kaplan-Meier as a function of radiation dose using Sigma-Plot and GraphPad Prism (version 4.0 for OS X, San Diego, CA, USA) software.

The subject of the next data set is CHOP transcript. The data set can be described thus: Real Time-PCR analysis of CHOP mRNA in tumors. Particulars: RM1 tumors. The class given is in vivo, mouse. The source says: Although phosphorylated eIF2α decreases the translation of most cellular proteins, including pro-survival and anti-apoptotic proteins, it increases the translation of a transcription factor, ATF4 that is responsible for inducing the transcription of pro-apoptotic genes, such as, CCAAT/enhancer-binding protein homologous protein (CHOP), thereby preparing the cell for programmed cell death in case the misfolded proteins are not repaired and ER stress persists.
Real Time PCR analysis of UPR target genes 24 hr after LOFU treatment the RM1 tumor cells were lysed using RLT buffer mixed with 1% betamercaptoethanol from RNeasy Mini Kit (Qiagen, Valencia, CA, USA).
Qiagen's protocol for the RNeasy Mini Kit with on-column DNA digestion was used to isolate RNA from the tumor lysates. The RNA samples were stored at −80° C., prior to further use. Isolated RNA was subjected to cDNA synthesis using the SuperScript™ First-Strand Synthesis System (Invitrogen, Grand Island, NY, USA). The splicing of XBP1 RNA was detected using the following primer pair 5′-[…]-3′ (SEQ ID NO:19) and 5′-[…]-3′ (SEQ ID NO:20) (Fisher Scientific, Pittsburgh, PA, USA). […]
Primers used for real time PCR included GRP78 5′[…]3′ (SEQ ID NO:21) and 5′[…]3′ (SEQ ID NO:22); EDEM 5′ […] […] Data was analyzed by web based PCR array data analysis software from SA Biosciences.

In the case of `C=CCNC1=C2C[C@@H](C)C[C@H](OC)[C@H](O)[C@@H](C)/C=C(\C)[C@H](OC(N)=O)[C@@H](OC)/C=C\C=C(/C)C(=O)NC(=CC1=O)C2=O` [17AAG, 17-N-allylamino-17-demethoxygeldanamycinan], the tumor volume was 964 mm^3 in data set [1] (17AAG 50 mg/kg b.w. i.p. three times a week, C57Bl/6 mice) and 485±24.25 mm^3 in data set [1] (17AAG 75 mg/kg b.w. i.p. three times a week, C57Bl/6 mice). For the same molecule, the “interval within which all the animals achieved tumor size 2000 mm^3” value in data set [1] (RM1 tumors, 17AAG 25 mg/kg alone) fell in the range of 26 to 30 days. Moreover, the “average estimated tumor growth slower compared to control group” value in data set [1] (RM1 tumors, 17AAG 25 mg/kg, C57Bl/6 mice) is recorded as 9%. For the same molecule, in data set [2] (75 mg/kg of body weight, after 21 days of treatment, C57Bl/6 mice), the “death of mice (Kaplan Meier survival analysis)” value was determined as 50%. Also, the “low dose found to be nontoxic” value was found to be 14 mg/kg in data set [2] (Balb/c nude mice) and 25 mg/kg in data set [2] (C57Bl/6 mice). The “normal tissue toxic effect” value in data set [2] (low dose 17AAG 25 mg/kg body weight, C57Bl/6 mice) is reported as “did not show any normal tissue toxic effect”. For the same molecule, the “CHOP transcript levels, induction compared to untreated controls” value with CHOP transcript was found to be 14.8±2 fold.
